Test results: ChEMBL document CHEMBL3507680, “University of Dundee, Gates Library screen for HepG2 cell viability”

Assay: Human HepG2 cell viability assay in 384 well format
Format: toxicity, cell-based
Design: dose 125 nL, time 70.5 hour; cytotoxicity at 70.5 h: concentration not given beside the values
Conditions: HepG2 cells, read-out: Inhibition

Row | SMILES | cytotoxicity at 70.5 h [%]
1 | Cc1ccc2oc(C(=O)N3CCCC(n4nc(C)nc4C)C3)cc2n1 (stereo not drawn) | -9.11
2 | CC(C)CN(C)Cc1nc2c(cnn2C)c(=O)[nH]1 | 12.1
3 | CC(C)N(Cc1ccccn1)Cc1nc2c(cnn2C)c(=O)[nH]1 | -6.49
4 | Cc1ccc(CN(Cc2nc3c(cnn3C)c(=O)[nH]2)C(C)C)s1 | -0.211
5 | CN(Cc1ccccn1)C(=O)c1nc(S(C)(=O)=O)n2ccccc12 | 1.32
6 | CN1CCOC(CNC(=O)COc2ccc(F)cc2F)C1 (stereo not drawn) | 0.568
7 | CC(O)CNCc1c(C(C)C)nn(C)c1N1CCOCC1 (stereo not drawn) | -0.301
8 | CCNC(=O)CNCc1c(C(C)C)nn(C)c1N1CCOCC1 | -2.6
9 | CS(=O)(=O)c1ccc(C(=O)N2CCCC(n3cccn3)C2)cc1 (stereo not drawn) | 0.802
10 | Cc1nnc2n1CCN(C(C(=O)NC1CC1)c1ccc(F)cc1)C2 (stereo not drawn) | -3.54
11 | Fc1ccc(-c2nc(CNC3CCc4ncnn4C3)cs2)cc1 (stereo not drawn) | 0.825
12 | COc1ccc(S(=O)(=O)NC(=O)COc2ccc3c(c2)CCC3)cc1 | 17.6
13 | CN(Cc1ccccc1)CC(O)Cn1cnc2c(Cl)cc(Cl)cc2c1=O (stereo not drawn) | -9.03
14 | Cc1nn(C)c(C)c1CC(=O)N1CCc2nnc(N(C)C)cc2C1 | -5.78
15 | Cc1c(F)cc(C(=O)O)cc1S(=O)(=O)Nc1ccc(C#N)cc1 | 19.6
16 | CNC(=O)CN1CCC(NC(=O)N(C)Cc2c(C)noc2C)CC1 | 26.1
17 | O=C1CN(C(=O)c2cccc(OCc3cscn3)c2)CCN1 | -1.69
18 | Cc1noc(C)c1CN(C)C(=O)NC1CCC(O)CC1 (stereo not drawn) | -8.86
19 | CCOc1ccc(Cl)c(C(=O)NCCC(=O)Nc2ccccn2)n1 | -6.63
20 | CCOc1ccc(Cl)c(C(=O)NCCS(N)(=O)=O)n1 | 22

Row | SMILES | cytotoxicity at 70.5 h [%]
21 | Cc1ccc(C(=O)N2CCN(CCc3ccccc3)CC2)c(=O)[nH]1 | -7.75
22 | Cc1noc(C)c1CN(C)C(=O)NC1CCOCC1 | 21
23 | Cc1noc(C2CCCN(C(=O)CCCNc3ncccn3)C2)n1 (stereo not drawn) | 3.05
24 | Cc1noc(C2CCN(C(=O)CCCNc3ncccn3)CC2)n1 | 1.13
25 | Cc1cc(C2CCCN2Cc2ccn(C)c(=O)c2)on1 (stereo not drawn) | -3.44
26 | c1cc(-c2nc(CN3CCc4c(ncn4C4CC4)C3)cs2)cs1 | -8.75
27 | O=C(Nc1ccc(OC2CCCC2)cc1)C1CCCN1c1nccs1 (stereo not drawn) | 26.8
28 | Cc1[nH]ncc1C(=O)N1CCCN(Cc2nccn2C(C)C)CC1 | -1.07
29 | O=C(c1ccon1)N1CCCC(n2cncn2)C1 (stereo not drawn) | -1.78
30 | NC(=O)c1cc(C2CCCN(CCOc3ccc(F)cc3)C2)n[nH]1 (stereo not drawn) | -2.25
31 | NC(=O)c1cc(C2CCCN(CCCOc3ccc(F)cc3)C2)n[nH]1 (stereo not drawn) | 4.69
32 | O=C(c1cc(Cl)cc2cccnc12)N1CCN(CCO)CC1 | -8.63
33 | CC(C)n1ccnc1CN1CCCN(C(=O)c2cscn2)CC1 | -2.53
34 | CCc1nc(C2CCCN2CCCS(N)(=O)=O)no1 (stereo not drawn) | -3.37
35 | CCOc1ccc(C2CCCN2C(=O)NCCn2ccnc2)cc1 (stereo not drawn) | -1.63
36 | CN(C)c1cc(C(=O)N2CCCN(c3cccnn3)CC2)ccn1 | -9.96
37 | CC(=O)NC1CCCN(Cc2ccn(C)c(=O)c2)C1 (stereo not drawn) | -9.51
38 | CCOC1CCN(C(=O)Nc2ccc(=O)n(C)c2)CC1 | 25
39 | CN(C)c1cc(C(=O)N2CCCCC2)ccn1 | 0.476
40 | O=C(NCC1CC1)Nc1ccc(OCC(F)(F)F)nc1 | -9.95

Row | SMILES | cytotoxicity at 70.5 h [%]
41 | CC(C)N1CC(C(=O)NCc2cccnc2-n2cccn2)CC1=O (stereo not drawn) | -11
42 | COc1cccc(-n2nnc(C(=O)N3CCN(C(C)=O)CC3)c2C)c1 | -6.81
43 | O=C(Nc1nccs1)NC1CCN(Cc2ccccn2)CC1 | -12.4
44 | CC(C)c1nnc(NC(=O)NC2CCN(Cc3ccccc3)C2)s1 (stereo not drawn) | -2.21
45 | CCC1c2ccsc2CCN1C(=O)NCCc1ccccn1 (stereo not drawn) | -9.75
46 | CCC1c2ccsc2CCN1C(=O)NCc1ccc(C)nc1 (stereo not drawn) | -10.2
47 | O=C(NCC1CCOC1)Nc1ccc(Oc2ccc(F)cc2)nc1 (stereo not drawn) | 15.8
48 | CC(Nc1cccc(CN2CCOC2=O)c1)C(=O)NC(=O)NC(C)(C)C (stereo not drawn) | -16.7
49 | Cn1cc(NC(=O)N2CCC(OCc3ccccc3)CC2)ccc1=O | -9.18
50 | CCN(CC)c1ccc(C(=O)N2CCCC2Cn2cc(C)cn2)cn1 (stereo not drawn) | -5.59
51 | COCCOc1ccc(C(=O)N2CCCC(n3cncn3)C2)cn1 (stereo not drawn) | 10.1
52 | CCC1c2ccsc2CCN1C(=O)NCc1cc(C)on1 (stereo not drawn) | -4.73
53 | c1cnnc(N2CCCC2CNCc2nc(-c3ccoc3)no2)c1 (stereo not drawn) | 10
54 | Cc1cnn(C2CCCN(C(=O)Cc3cn4ccsc4n3)C2)c1 (stereo not drawn) | -5.39
55 | Cn1cc(CN2CCCN(C(=O)c3ccc4ccccc4n3)CC2)cn1 | -13
56 | O=C(CN1CC(c2nc(C3CC3)no2)C1)N1CCOCC1 | -17.5
57 | c1cncc(-c2noc(C3CN(Cc4cccs4)C3)n2)c1 | -12.2
58 | c1cnc(-c2noc(C3CN(Cc4ccc5c(c4)CCO5)C3)n2)cn1 | -9.18
